Assay [1] can be described thus: A Cell Based Secondary Assay To Explore Cytotoxicity of Compounds that Sensitize Mycobacterium Tuberculosis to Beta-Lactam Antibiotics. It counts as functional.
The test system of assay [2] is Streptococcus sp. 'group A'. Nature of the assay: growth inhibition of control SK(-) GAS strain, dose response, counter-screen for streptokinase expression inhibitor project, luminescence, kanamycin, BacTiterGlo, confirmation (AID 1900). It counts as functional, organism-based. A general note: Counterscreens check selectivity or assay interference.
In assay [3] the test system is Streptococcus. Nature of the assay: Luminescence Microorganism-Based Dose Response Follow up to Identify Compounds Cytotoxic to Streptococcus. [Related pubchem assays: 1677 (Project Summary), 1915, 1914, 1902 (Retest at Dose), 1900 (Counter Screen), 1662 (Primary HTS)]. It counts as functional, organism-based.
The test system of assay [4] is Streptococcus. Nature of the assay: Group A Streptococcus viability loss, dose response, counter-screen for streptokinase expression inhibitor project, luminescence, BacTiterGlo (AID 1915).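 Note: potency for reduction of bacterial viability or growth.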 Format: functional, organism-based.
Assay [5] is described as follows: cells. It counts as functional, cell-based.
Assay [6] can be described thus: cells. Format: functional, cell-based. This is another data set of the same source.
A further assay addresses Aspartyl aminopeptidase (Plasmodium falciparum 3D7, UniProt Q8I2J3). The assay can be described thus: Counterscreen for inhibitors of M1 and M17 aminopeptidases: QFRET-based biochemical high throughput dose response assay for inhibitors of the Plasmodium falciparum M18 Aspartyl Aminopeptidase (PFM18AAP). [Related PubChem assays: 1619 (Screening assay (M17LAP inhibitors).), 1445 (Screening assay (M1AAP inhibitors).)].

For the next assay, the target named is T1, Aminopeptidase N (Plasmodium falciparum FcB1/Columbia, UniProt O96935).
T1 sequence (O96935 whole entry): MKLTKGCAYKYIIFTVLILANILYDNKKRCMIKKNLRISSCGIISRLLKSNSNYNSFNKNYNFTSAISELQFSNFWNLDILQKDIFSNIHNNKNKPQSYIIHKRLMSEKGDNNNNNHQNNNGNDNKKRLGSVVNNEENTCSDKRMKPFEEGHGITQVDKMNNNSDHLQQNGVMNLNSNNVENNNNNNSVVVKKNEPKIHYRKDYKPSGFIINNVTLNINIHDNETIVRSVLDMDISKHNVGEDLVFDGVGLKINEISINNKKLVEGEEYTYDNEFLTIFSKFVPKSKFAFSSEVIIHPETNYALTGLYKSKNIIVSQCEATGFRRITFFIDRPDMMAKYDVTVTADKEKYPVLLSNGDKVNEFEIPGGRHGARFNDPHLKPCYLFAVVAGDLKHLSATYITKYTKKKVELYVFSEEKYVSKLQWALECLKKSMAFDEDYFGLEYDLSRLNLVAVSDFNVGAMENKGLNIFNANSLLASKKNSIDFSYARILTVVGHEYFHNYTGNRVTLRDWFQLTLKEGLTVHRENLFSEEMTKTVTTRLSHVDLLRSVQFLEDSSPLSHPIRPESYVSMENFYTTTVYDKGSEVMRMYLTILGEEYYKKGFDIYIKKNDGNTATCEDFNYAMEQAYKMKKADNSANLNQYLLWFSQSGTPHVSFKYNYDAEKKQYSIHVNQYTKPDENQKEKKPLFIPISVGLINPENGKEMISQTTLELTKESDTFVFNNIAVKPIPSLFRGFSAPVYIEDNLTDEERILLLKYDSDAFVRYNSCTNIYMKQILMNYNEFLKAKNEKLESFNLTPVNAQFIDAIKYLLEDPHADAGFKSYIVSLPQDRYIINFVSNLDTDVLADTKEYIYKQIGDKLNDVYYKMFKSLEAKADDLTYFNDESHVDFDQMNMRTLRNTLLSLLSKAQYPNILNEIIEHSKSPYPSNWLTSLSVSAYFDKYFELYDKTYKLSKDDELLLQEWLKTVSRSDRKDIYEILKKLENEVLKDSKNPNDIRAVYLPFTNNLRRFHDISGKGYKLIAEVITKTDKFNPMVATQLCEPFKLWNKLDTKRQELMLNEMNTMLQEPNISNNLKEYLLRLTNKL
Nature of the assay: P. falciparum M1AAP inhibitors, biochemical, fluorogenic H-Leu-NHMec substrate, 1536-well (AID 1445). On the set-up: species or system Plasmodium falciparum 3D7, 3D7.

In another assay the target is Procathepsin L (Homo sapiens, UniProt P07711). Nature of the assay: cathepsin L inhibitors, dose response, counter-screen for M1/M17 aminopeptidase inhibitor project, biochemical, QFRET, 1536-well (AID 2214).
Assay [7] deals with T2, Bcl-2-like protein 10 (Homo sapiens, UniProt Q9HD36).
T2 sequence (Q9HD36 whole entry): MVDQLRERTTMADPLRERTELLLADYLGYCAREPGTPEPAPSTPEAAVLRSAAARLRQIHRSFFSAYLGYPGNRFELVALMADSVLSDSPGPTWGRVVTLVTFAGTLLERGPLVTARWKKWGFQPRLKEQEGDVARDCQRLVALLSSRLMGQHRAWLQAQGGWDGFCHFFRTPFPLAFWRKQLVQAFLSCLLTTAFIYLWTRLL
Nature of the assay: Biochemical TR3 FP assay of Bcl-B inhibitor potency, EC50 (AID 1243). Format: functional.

Assay [8] concerns the target T3, E3 ubiquitin-protein ligase XIAP (Homo sapiens, UniProt P98170). Nature of the assay: XIAP antagonists, biochemical, IAP family, fluorescence polarization (AID 1018). It counts as functional. In general terms: In fluorescence polarisation assays a small probe gives low polarisation when free and higher when bound to something large.
Assay [9] deals with T3, E3 ubiquitin-protein ligase XIAP. Nature of the assay: Counter Screen using XIAP-Bir3 for Chemical Antagonists of Bir1/2 domains of IAP-family anti-apoptotic proteins. [Related pubchem assays (depositor defined):AID1018, AID1449, AID1514, AID1638, AID1749, AID1750, AID488957, AID488963].
The target of a further assay is T4, Estrogen receptor (Homo sapiens, UniProt P03372).
T4 sequence (P03372 whole entry): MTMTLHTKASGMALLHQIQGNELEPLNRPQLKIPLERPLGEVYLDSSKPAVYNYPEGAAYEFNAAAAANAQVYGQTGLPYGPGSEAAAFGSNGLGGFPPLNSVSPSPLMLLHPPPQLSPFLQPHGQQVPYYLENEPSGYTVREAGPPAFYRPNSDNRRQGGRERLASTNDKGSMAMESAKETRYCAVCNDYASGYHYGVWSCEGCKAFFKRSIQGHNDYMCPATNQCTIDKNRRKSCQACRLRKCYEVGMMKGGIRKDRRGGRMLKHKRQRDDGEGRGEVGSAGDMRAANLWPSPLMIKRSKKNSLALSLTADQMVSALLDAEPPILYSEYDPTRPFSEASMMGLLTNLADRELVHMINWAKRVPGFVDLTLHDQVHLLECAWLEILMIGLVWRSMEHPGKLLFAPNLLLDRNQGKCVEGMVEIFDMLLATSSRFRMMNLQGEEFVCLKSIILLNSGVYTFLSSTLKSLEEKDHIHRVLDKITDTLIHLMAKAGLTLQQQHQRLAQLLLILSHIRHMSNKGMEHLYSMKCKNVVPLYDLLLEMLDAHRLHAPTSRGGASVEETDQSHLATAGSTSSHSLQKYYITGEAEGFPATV
Nature of the assay: potentiators of ERα–SRC-1 coactivator binding, dose response, biochemical, TR-FRET, ERα LBD (AID 737). A general note: TR-FRET usually uses a lanthanide donor and a delayed reading to cut background.

The target in assay [10] is Protein-tyrosine kinase 2-beta (Homo sapiens, UniProt Q14289).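 Note: potency of inhibitors of PYK2 kinase phosphorylation of poly-GT substrate.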
A short description of assay [11]: Luminescence Cell-Based Dose Response HTS to Identify Activators of Luciferase Translation or Activity in H4 […] Cells. [Related pubchem assays: 1829 (Project Summary), 1814 (Primary HTS)]. Format: functional.
The next assay has as its system H4. The assay can be described thus: Luminescence Cell-Based Dose Response HTS to Identify Activators of 5'UTR Stem-Loop Driven Prion Protein mRNA Translation in H4 Neuroglioblastoma Cells. [Related pubchem assays: 1829 (Project Summary), 1814 (Primary HTS)]. Particulars: Homo sapiens. It counts as functional.
A short description of assay [12]: Luminescence Cell-Based Dose Confirmation to Identify Activators of 5'UTR Stem-Loop Driven Alpha-Synuclein mRNA Translation in H4 Neuroglioblastoma Cells. [Related pubchem assays: 1829 (Project Summary), 1814 (Primary HTS)]. Format: functional.
Assay [13] can be described thus: Luminescence Cell-Based Dose Confirmation HTS to Identify Activators of 5'UTR Stem-Loop Driven Alpha-Synuclein mRNA Translation in H4 Neuroglioblastoma Cells. [Related pubchem assays: 1829 (Project Summary), 1814 (Primary HTS)]. Format: functional.
A short description of assay [14]: Luminescence Cell-Based Dose Response to Identify Activators of Luciferase Translation or Activity in H4-C Neuroglioblastoma Cells. [Related pubchem assays: 1829 (Project Summary), 1814 (Primary HTS)]. It counts as functional.
Assay [15] can be described thus: Luminescence Cell-Based Dose Response to Identify Activators of 5'UTR Stem-Loop Driven Prion Protein mRNA Translation in H4-C Neuroglioblastoma Cells. [Related pubchem assays: 1829 (Project Summary), 1814 (Primary HTS)]. Format: functional.
Assay [16] deals with Peroxisome proliferator-activated receptor gamma/Nuclear receptor coactivator 1 (Homo sapiens, UniProt P37231). Format: functional.
Assay [17] addresses Peroxisome proliferator-activated receptor gamma/Nuclear receptor coactivator 2 (Homo sapiens, UniProt P37231). It counts as functional.
The target of assay [18] is Peroxisome proliferator-activated receptor gamma/Nuclear receptor coactivator 3 (Homo sapiens, UniProt P37231). It counts as functional.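 Note: agonist potency for raising coactivator recruitment to the receptor.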
Assay [19] concerns the target T2, Bcl-2-like protein 10. Nature of the assay: displacers of TR3 peptide from Bcl-B, primary screen, selectivity assay for Bfl-1 inhibitor project, biochemical, fluorescence polarization, FITC-TR3 peptide (AID 748).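 Note: fluorescence polarization from a fluorescein-labelled TR3 peptide binding purified Bcl-B.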
The target in assay [20] is Eukaryotic translation initiation factor 4E (Mus musculus, UniProt P63073). Nature of the assay: eIF4E–eIF4G protein interaction inhibitors, dose response, biochemical, TR-FRET (AID 855).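 Note: potency for disrupting eIF4E binding to eIF4GI seen as loss of FRET.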 Format: functional.

The source made the active and inactive calls.

T3 sequence (P98170 whole entry): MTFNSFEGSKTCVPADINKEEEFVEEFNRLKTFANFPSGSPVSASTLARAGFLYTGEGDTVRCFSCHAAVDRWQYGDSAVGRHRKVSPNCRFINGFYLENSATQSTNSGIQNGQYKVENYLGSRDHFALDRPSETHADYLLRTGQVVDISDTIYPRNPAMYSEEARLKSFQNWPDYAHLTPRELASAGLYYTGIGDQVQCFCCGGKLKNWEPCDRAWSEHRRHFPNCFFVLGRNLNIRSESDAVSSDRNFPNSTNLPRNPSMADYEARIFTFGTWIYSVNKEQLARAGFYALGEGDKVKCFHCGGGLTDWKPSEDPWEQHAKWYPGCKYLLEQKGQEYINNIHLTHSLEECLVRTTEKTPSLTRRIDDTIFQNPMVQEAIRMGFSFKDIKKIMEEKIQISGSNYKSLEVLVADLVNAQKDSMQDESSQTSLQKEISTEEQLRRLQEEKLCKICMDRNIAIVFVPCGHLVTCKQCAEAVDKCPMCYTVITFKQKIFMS
Chain of Aspartyl aminopeptidase (Q8I2J3 whole entry): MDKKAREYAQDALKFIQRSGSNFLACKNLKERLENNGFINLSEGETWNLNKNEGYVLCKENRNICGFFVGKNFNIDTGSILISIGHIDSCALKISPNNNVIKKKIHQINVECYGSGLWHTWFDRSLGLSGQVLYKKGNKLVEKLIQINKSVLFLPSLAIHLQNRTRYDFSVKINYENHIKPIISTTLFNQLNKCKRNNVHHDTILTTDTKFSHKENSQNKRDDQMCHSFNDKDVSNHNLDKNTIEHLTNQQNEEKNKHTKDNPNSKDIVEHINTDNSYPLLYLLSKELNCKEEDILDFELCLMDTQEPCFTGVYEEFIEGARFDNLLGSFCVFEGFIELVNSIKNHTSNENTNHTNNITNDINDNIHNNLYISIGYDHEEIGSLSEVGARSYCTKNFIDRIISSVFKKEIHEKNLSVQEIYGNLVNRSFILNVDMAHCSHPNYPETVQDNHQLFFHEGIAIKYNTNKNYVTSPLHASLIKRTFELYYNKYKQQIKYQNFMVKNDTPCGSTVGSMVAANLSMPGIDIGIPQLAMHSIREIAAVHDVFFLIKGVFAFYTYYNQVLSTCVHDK
Chain of Protein-tyrosine kinase 2-beta (Q14289 whole entry): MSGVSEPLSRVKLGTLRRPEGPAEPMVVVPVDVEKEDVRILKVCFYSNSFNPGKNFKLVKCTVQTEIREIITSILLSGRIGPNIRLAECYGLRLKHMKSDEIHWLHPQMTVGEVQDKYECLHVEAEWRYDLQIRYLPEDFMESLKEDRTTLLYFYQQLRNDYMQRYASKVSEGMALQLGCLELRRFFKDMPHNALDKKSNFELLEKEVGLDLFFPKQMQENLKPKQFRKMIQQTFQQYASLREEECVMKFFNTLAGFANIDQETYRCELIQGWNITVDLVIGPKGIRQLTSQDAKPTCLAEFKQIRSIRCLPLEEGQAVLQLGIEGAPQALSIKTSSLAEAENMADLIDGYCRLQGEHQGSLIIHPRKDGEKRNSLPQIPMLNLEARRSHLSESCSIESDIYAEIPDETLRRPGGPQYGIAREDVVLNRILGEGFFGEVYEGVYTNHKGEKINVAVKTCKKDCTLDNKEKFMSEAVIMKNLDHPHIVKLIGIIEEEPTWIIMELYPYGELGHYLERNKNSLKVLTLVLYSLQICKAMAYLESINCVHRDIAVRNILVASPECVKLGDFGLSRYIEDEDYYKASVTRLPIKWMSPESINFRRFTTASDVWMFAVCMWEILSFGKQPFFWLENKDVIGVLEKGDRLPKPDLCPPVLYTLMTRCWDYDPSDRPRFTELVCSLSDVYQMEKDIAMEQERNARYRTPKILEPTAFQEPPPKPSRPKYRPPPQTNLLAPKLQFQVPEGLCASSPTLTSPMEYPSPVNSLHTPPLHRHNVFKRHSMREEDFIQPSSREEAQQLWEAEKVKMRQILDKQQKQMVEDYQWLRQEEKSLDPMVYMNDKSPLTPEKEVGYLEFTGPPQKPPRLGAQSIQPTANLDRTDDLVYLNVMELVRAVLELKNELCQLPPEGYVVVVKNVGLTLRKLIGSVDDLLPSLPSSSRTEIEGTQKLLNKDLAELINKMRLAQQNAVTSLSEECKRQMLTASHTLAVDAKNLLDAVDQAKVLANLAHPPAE
Chain of Procathepsin L (P07711 whole entry): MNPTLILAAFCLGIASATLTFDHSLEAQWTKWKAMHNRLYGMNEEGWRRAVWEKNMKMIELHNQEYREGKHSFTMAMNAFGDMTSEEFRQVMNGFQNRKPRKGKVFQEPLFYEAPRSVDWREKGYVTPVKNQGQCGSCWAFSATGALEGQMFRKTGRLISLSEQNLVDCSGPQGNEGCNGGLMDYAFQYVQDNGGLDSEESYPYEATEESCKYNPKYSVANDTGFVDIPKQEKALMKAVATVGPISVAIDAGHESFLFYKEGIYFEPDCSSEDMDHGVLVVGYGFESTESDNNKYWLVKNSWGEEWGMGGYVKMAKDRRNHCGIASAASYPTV
Chain of Peroxisome proliferator-activated receptor gamma/Nuclear receptor coactivator 1 (P37231 whole entry): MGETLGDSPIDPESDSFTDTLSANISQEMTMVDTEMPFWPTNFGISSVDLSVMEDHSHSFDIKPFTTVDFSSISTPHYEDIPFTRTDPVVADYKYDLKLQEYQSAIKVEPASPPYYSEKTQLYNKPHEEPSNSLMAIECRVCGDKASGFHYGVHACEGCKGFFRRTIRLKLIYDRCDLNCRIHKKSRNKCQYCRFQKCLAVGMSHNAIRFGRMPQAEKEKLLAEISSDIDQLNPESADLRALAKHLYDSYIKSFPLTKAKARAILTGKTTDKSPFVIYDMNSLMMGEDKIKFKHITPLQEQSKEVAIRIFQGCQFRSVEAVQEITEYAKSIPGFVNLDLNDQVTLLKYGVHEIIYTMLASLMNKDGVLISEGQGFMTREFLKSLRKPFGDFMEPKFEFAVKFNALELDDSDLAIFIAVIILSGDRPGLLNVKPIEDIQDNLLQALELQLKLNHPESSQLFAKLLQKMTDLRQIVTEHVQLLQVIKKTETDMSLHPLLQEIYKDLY
Chain of Peroxisome proliferator-activated receptor gamma/Nuclear receptor coactivator 1 (Q15788 whole entry, further chain): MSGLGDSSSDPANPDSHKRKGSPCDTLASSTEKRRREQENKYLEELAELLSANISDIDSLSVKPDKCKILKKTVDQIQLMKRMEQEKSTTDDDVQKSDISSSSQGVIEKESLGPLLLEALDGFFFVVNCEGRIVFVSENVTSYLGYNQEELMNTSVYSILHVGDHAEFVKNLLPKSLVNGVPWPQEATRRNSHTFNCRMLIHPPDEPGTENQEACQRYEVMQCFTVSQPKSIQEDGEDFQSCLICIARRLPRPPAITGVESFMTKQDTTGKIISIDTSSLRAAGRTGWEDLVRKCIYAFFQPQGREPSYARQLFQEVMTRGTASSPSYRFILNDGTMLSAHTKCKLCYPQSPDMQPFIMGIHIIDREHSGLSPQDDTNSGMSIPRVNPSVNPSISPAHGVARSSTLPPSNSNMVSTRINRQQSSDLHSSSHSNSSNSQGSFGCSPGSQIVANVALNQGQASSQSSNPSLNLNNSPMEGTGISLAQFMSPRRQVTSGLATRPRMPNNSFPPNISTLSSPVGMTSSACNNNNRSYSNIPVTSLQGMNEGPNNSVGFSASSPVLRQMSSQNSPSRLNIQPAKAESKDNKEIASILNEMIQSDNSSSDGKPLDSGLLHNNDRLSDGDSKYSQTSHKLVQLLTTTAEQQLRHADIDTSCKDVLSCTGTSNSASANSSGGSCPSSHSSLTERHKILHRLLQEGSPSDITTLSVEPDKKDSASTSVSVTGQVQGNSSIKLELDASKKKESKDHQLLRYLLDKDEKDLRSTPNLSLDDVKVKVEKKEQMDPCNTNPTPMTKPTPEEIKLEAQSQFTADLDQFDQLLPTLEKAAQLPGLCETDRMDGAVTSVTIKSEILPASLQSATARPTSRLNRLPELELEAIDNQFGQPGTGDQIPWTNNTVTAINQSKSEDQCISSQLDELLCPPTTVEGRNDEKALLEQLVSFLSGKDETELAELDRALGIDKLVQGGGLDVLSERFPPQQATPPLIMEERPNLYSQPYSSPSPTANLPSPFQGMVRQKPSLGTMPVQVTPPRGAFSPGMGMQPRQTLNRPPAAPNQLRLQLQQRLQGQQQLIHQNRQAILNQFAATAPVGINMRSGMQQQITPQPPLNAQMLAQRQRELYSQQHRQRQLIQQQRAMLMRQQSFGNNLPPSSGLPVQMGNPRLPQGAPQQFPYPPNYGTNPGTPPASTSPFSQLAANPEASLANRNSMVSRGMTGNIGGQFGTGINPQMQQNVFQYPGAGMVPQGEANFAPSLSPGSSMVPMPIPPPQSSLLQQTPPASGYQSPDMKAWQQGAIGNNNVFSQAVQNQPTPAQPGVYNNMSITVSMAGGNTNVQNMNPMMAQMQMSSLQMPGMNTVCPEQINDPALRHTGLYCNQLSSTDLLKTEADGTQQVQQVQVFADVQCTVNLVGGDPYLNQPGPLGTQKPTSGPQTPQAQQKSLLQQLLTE
Chain of Eukaryotic translation initiation factor 4E (P63073 whole entry): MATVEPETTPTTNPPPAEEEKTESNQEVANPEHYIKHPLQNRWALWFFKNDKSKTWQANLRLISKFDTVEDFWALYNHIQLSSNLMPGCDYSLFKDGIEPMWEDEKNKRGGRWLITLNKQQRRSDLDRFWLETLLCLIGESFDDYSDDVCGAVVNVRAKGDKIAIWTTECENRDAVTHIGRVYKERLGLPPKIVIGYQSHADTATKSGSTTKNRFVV

For `CCOC(=O)c1c(C)[nH]c(C)c1C(=O)COC(=O)c1ccc(S(=O)(=O)N(CC)CC)cc1`, in assay [1], the CC50 (as a rule, the concentration at which the toxic effect on the cells reaches its halfway point) is > 40 µM (active).

For the compound `O=C(CSc1nc(O)nc(-c2ccc(Cl)cc2)n1)Nc1cccc(Cl)c1`, the EC50 (in general, the concentration that produces a half-maximal response) in [2] was 4.35 µM (active); with Streptococcus [3], 26.2 µM (active); with Streptococcus [4], > 150 µM (not active).

With `COc1ccc(SCC(=O)N2c3ccccc3Sc3ccccc32)cc1`, in the assay on Streptococcus [3], the EC50 was > 500 µM (not active).

Take `CC(C)N=C(S)NN=C1c2ccccc2-c2ccccc21`: the EC50 in the assay “cells [5]” and in the assay “cells [6]” was > 350 µM (not active) throughout. For the same compound, the CC50 in assay [1] was > 40 µM (active).

For `O=C(O)CCC(=O)N1N=C(c2c(O)nc3ccc(Cl)cc3c2-c2ccccc2)CC1c1cccs1` (stereo not given), the IC50 (commonly the concentration that inhibits the measured activity by half) against Aspartyl aminopeptidase is > 73.5 µM (not active); at Aminopeptidase N, 5.76 µM (active); against Procathepsin L, > 59.6 µM (not active).

Consider `Cn1c(=O)cc2c3c(c(Nc4ccc(C=O)cc4)ccc31)C(=O)c1ccccc1-2`, for which the EC50 at Bcl-2-like protein 10 [7] is 8.04 µM (active).

With `O=C(O)CCC(=O)N1N=C(c2c(-c3ccccc3)c3cc(Cl)ccc3[nH]c2=O)CC1c1ccco1` (stereo not given), the values for the IC50 against Aspartyl aminopeptidase, at Aminopeptidase N and against Procathepsin L were > 73.5 µM (not active), 13 µM (active) and > 59.6 µM (not active), respectively.

On to `CC(=O)N1CCCc2cc(S(=O)(=O)N(CC(C)C)CC(C)C)ccc21`, for which the IC50 in assay [8] is > 100 µM (not active); in assay [9], > 100 µM (inactive).

With `NC(=O)c1oc2ccccc2c1NC(=O)c1nc2ccccc2s1`, the EC50 at Estrogen receptor is 13.4 µM (active).

For the compound `COc1ccccc1-n1c(SCC(=O)NC2CCCCC2)nc2c(c1=O)SCC2`, the EC50 at Estrogen receptor is given as 6.62 µM (not active).

Consider `Cc1ccc(OC(=O)c2ccccc2P(=O)(O)O)cc1`, for which the IC50 in [10] was 9.74 µM (active).

Turning to `Cn1cc(Br)c(C(=O)Nc2sc3c(c2C(N)=O)CCCC3)n1`, the EC50 was 13.6 µM (active) in assay [11]; 0.117 µM (active) with H4; > 12 µM (not active) in assay [12]; 13.3 µM (active) in assay [13]; > 12 µM (not active) in assay [14]; > 12 µM (not active) in assay [15].

For `O=C(COC(=O)c1sc2ccccc2c1Cl)Nc1ncc(Cl)cc1Cl`, the half-maximal effective concentration (EC50) was 21.6 µM (not active) in assay [16], 18.8 µM (not active) in assay [17] and 25.5 µM (not active) in assay [18].

For `CCCN1Cc2cccc(C(=O)Nc3ccc4c(c3)OCO4)c2C1=O`, the IC50 in assay [8] is > 100 µM (not active); in assay [9] it was > 100 µM (inactive).

For `COc1cc(C2Nc3ccc4ccccc4c3C3=C2C(=O)CC(C)(C)C3)c(Br)cc1O` (stereo not given), the EC50 on Bcl-2-like protein 10 [7] is 13.1 µM (active).

Consider `Cc1cc(N)ccc1N1CCCC1`, for which the values for the IC50 (in assay [10]; on Bcl-2-like protein 10 [19]; in [20]) were 1.82 µM (active), 0.963 µM (active) and 33.1 µM (inactive), respectively.

Source of the values: ChEMBL document CHEMBL1201862, “PubChem BioAssay data set” (2004).
